Data from patent US9102671B2, “Compounds and compositions as TRK inhibitors” (Novartis AG, priority 2011, dated 2015).

How the values were obtained:
[1] = tested on: parental (untransformed) Ba/F3 cells; assay: Ba/F3 cell proliferation, BAF3/WT (parental, IL3); assay type: cell-based, murine; conditions: Mus musculus, inhibition of proliferation of parental cells with IL3, 48 hours, Bright-Glo luminescence
Experimental: (§1) Test compounds were dissolved in DMSO (10 mM) and transferred into 1.4 mL flat bottom or V-shaped Matrix tubes carrying a unique 2D matrix chip by individual compound hubs. The numbers of these chips were distinctively linked to the individual compound identification numbers. The stock solutions were stored at −20° C. if not used immediately. For the test procedure the vials were defrosted and identified by a scanner whereby a working sheet is generated that guides the subsequent working steps.
(§2) Compound dilutions were made in 384 well plates. This format enabled the assay of maximally 28 individual test compounds at 11 concentrations (single points) including 2 reference compounds. The dilution protocol included the production of pre-dilution plates, master plates and assay plates: • Compound plates: 30 μL of individual compound (10 mM) DMSO solution including reference compound were transferred into columns 1 and 13 of a 384 well plate. 20 μL of DMSO were added to the rest of the wells and the compounds were serially diluted (1:3) by transferring 10 μL from a well in column 1 or 13 to the next well in column 2 or 14 respectively and successively with the help of a Minitrack robot. • Assay plates: Identical assay plates were then prepared by adding 50 nL each of compound dilutions of the compound plates into 384-well “assay plates”. In the following the compounds were mixed with 50 μL of assays components (cells or enzyme) and tested for their inhibitory activity.
Compounds were tested for their ability to inhibit the proliferation of wt Ba/F3 cells and Ba/F3 cells transformed with constitutively expressed luciferase reporter and BCR-ABL or Tel-FMS or other Tel fusion kinases (EGFR, JAK2, ALK, BMX, FGFR3, FGFR4, FGR2, FLT1, FLT3, IGF1R, INSR, KDR, KIT, LCK, LYN, MEK, MET, PDGFRα, PDGFRβ, RET, RON, ROS, SRC, SYK, TIE and TYRO) or BRafV600E. Parental Ba/F3 cells were maintained in media containing recombinant mouse IL3 and the kinase transformed Ba/F3 cells were maintained in media without IL-3. 7.5 nl of compounds were spotted to each well of 1536-well assay plates by Liquid handling System Echo 555 (Labcyte). 700 cells were then plated into each well of the assay plates in 7 uL culture media per well and compounds were tested at 0.17 nM to 10 uM in 3-fold serial dilutions. The cells were then incubated for 48 hours at 37° C. 3 uL of Bright-Glo® (Promega) was added to each well and the plates were read using ViewLux (PerkinElmer).
The cell line used is the luciferase expressing Ba/F3 murine hematopoietic progenitor cell line transformed with human Tel-TrkA, Tel-TrkB or Tel-TrkC cDNAs (Ba/F3 EN A/B/C). These cells maintained in RPMI/10% fetal bovine serum (RPMI/FCS) supplemented with penicillin 50 mg/mL, streptomycin 50 mg/mL and L-glutamine 200 mM. Untransformed Ba/F3 cells were similarly maintained with the addition 5 ng/ml of murine recombinant IL3. 50 μl of a Ba/F3 or Ba/F3 EN A/B/C cell suspension were plated in Greiner 384 well microplates (white)) at a density of 2000 cells per well. 50 nl of serially diluted test compound (10-0.0001 mM in DMSO solution) is added to each well. The cells were incubated for 48 hours at 37° C., 5% CO2. 25 μl of Bright Glo® (Promega) luciferase substrate is added to each well. The emited luminiscence is quantified using ViewLux (PerkinElmer). IC50 values were calculated by linear regression analysis of the percentage inhibition of each compound at 11 concentrations. […]

[2] = target: T1, Ba/F3 cells co-expressing full length rTrkA and mNGF (Rattus norvegicus, UniProt P35739); assay: Ba/F3 cell proliferation, BaF3/TRKA-NGF; assay type: cell-based; conditions: inhibition of proliferation, 48 hours, Bright-Glo luminescence
T1 construct: co-expressing full length rTrkA and mNGF; expressed in transfected cells; host or cells: Ba/F3 murine hematopoietic progenitor cells

[3] = target: T2, Ba/F3 cells transformed with human Tel-TrkA (Homo sapiens, UniProt P04629); assay: Ba/F3 cell proliferation, Ba/F3 Tel-TrkA; assay type: cell-based; conditions: inhibition of proliferation, 48 hours, Bright-Glo luminescence; read-out: Ba/F3Tel-TrkA
T2 construct: expressed in transfected cells; host or cells: luciferase expressing Ba/F3 murine hematopoietic progenitor cell line; the other entry of the earlier key: ETV6 (P41212, Transcription factor ETV6)
Experimental: as §1, §2
The cell line used is the luciferase expressing Ba/F3 murine hematopoietic progenitor cell line transformed with human Tel-TrkA, Tel-TrkB or Tel-TrkC cDNAs (Ba/F3 EN A/B/C). These cells maintained in RPMI/10% fetal bovine serum (RPMI/FCS) supplemented with penicillin 50 mg/mL, streptomycin 50 mg/mL and L-glutamine 200 mM. Untransformed Ba/F3 cells were similarly maintained with the addition 5 ng/ml of murine recombinant IL3. 50 μl of a Ba/F3 or Ba/F3 EN A/B/C cell suspension were plated in Greiner 384 well microplates (white)) at a density of 2000 cells per well. 50 nl of serially diluted test compound (10-0.0001 mM in DMSO solution) is added to each well. The cells were incubated for 48 hours at 37° C., 5% CO2. 25 μl of Bright Glo® (Promega) luciferase substrate is added to each well. The emited luminiscence is quantified using ViewLux (PerkinElmer). IC50 values were calculated by linear regression analysis of the percentage inhibition of each compound at 11 concentrations.
In certain examples compounds of Formula (I) have IC50 values from 0.1 nM 1 μM. In other examples, compounds of Formula (I) have IC50 values from 0.0001 μM to 0.8 μM. In other examples, compounds of Formula (I) have IC50 values from 0.0001 μM to 0.6 μM. In other examples, compounds of Formula (I) have IC50 values from 0.0001 μM to 0.4 μM. In other examples, compounds of Formula (I) have IC50 values from 0.0001 μM to 0.2 μM. In other examples, compounds of Formula (I) have IC50 values from 0.0001 μM to 0.1 μM. In other examples, compounds of Formula (I) have IC50 values from 0.0001 μM to 0.08 μM. In other examples, compounds of Formula (I) have IC50 values from 0.0001 μM to 0.06 μM. In other examples, compounds of Formula (I) have IC50 values from 0.0001 μM to 0.04 μM. In other examples, compounds of Formula (I) have IC50 values from 0.0001 μM to 0.02 μM. In other examples, compounds of Formula (I) have IC50 values from 0.0001 μM to 0.01 μM. In other examples, compounds of Formula (I) have IC50 values from 0.01 μM to 1 μM.

T2 sequence (P04629 510-796 limits assumed): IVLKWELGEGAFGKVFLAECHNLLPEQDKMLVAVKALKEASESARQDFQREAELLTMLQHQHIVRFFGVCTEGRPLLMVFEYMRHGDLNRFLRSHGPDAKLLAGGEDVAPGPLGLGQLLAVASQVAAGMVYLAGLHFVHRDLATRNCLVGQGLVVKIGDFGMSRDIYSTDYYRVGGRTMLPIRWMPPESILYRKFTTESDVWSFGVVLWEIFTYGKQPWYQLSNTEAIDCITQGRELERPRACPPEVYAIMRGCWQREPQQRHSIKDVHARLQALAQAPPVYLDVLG
T1 sequence (P35739 33-799): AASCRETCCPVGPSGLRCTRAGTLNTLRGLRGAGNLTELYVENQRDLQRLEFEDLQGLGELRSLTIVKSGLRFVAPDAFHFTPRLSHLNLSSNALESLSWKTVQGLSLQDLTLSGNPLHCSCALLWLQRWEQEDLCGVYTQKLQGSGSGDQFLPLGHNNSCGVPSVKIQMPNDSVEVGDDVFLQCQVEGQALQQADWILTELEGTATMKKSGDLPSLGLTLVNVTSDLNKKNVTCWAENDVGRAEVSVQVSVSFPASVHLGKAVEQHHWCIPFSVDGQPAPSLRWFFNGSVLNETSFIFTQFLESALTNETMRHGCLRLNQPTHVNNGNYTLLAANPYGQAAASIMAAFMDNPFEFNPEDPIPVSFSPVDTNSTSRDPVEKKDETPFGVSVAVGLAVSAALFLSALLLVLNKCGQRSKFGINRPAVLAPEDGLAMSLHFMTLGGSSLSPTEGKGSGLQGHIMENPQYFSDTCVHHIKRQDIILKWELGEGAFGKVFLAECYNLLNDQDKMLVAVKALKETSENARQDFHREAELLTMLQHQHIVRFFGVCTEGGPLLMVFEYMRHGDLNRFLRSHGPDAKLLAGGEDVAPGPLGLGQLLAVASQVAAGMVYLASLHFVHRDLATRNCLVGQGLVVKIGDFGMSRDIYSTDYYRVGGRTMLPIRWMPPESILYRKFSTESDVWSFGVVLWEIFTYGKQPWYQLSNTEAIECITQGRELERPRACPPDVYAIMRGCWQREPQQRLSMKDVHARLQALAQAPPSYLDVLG
T1 sequence (P01139 122-241 partner): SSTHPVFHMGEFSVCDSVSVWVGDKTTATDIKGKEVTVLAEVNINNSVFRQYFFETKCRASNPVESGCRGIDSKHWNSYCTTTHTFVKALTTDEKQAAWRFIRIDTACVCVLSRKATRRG

| Structure (SMILES) | IC50 [2] | IC50 [3] | melting point | IC50 [1] |
| --- | --- | --- | --- | --- |
| N#Cc1cc(F)cc([C@H]2C[C@H](F)CN2c2ccn3ncc(C(N)=O)c3c2)c1 [Example X-10, 5-((2R,4S)-2-(3-cyano-5-fluorophenyl)-4-fluoropyrrolidin-1-yl)pyrazolo[1,5-a]pyridine-3-carboxamide] | 8 nM | 5 nM | 140 °C (dec.) | > 10 µM |
| CN(C)C(=O)c1cnn2ccc(N3C[C@@H](F)C[C@@H]3c3cccc(F)c3)cc12 [Example X-15, 5-[(2R,4S)-4-fluoro-2-(3-fluorophenyl)pyrrolidin-1-yl]-N,N-dimethylpyrazolo[1,5-a]pyridine-3-carboxamide] | 43 nM | 50 nM |  | > 10 µM |
| CC(C)(C)NC(=O)c1cnn2ccc(N3C[C@@H](F)C[C@@H]3c3cccc(F)c3)cc12 [Example X-16, N-tert-butyl-5-[(2R,4S)-4-fluoro-2-(3-fluorophenyl)pyrrolidin-1-yl]pyrazolo[1,5-a]pyridine-3-carboxamide] | 6 nM | 5 nM |  | > 10 µM |
| O=C(NCCO)c1cnn2ccc(N3C[C@@H](F)C[C@@H]3c3cccc(F)c3)cc12 [Example X-17, 5-[(2R,4S)-4-fluoro-2-(3-fluorophenyl)pyrrolidin-1-yl]-N-(2-hydroxyethyl)pyrazolo[1,5-a]pyridine-3-carboxamide] | 14 nM | 9 nM |  | > 10 µM |
| CC(C)NC(=O)c1ccc(F)cc1C1CC(F)(F)CN1c1ccn2ncc(C(N)=O)c2c1 (stereo not shown) [Example X-18, 5-(4,4-difluoro-2-{5-fluoro-2-[(propan-2-yl)carbamoyl]phenyl}pyrrolidin-1-yl)pyrazolo[1,5-a]pyridine-3-carboxamide] | 7 nM | 7 nM |  | > 10 µM |
| CCOC(=O)c1cnn2ccc(N3C[C@@H](C#N)C[C@@H]3c3cccc(F)c3)cc12 [Example X-19, ethyl 5-((2R,4S)-4-cyano-2-(3-fluorophenyl)pyrrolidin-1-yl)pyrazolo[1,5-a]pyridine-3-carboxylate] | 7 nM | 7 nM |  | > 10 µM |
| CCOC(=O)c1cnn2ccc(N3C[C@@H](C(N)=O)C[C@@H]3c3cccc(F)c3)cc12 [Example X-20, ethyl 5-((2R,4S)-4-carbamoyl-2-(3-fluorophenyl)pyrrolidin-1-yl)pyrazolo[1,5-a]pyridine-3-carboxylate] | 2 nM | 2 nM |  | > 10 µM |
| O=C(Nc1cnn2ccc(N3C[C@@H](F)C[C@@H]3c3cccc(F)c3)cc12)OCc1ccccc1 [Example X-21, benzyl (5-((2R,4S)-4-fluoro-2-(3-fluorophenyl)pyrrolidin-1-yl)pyrazolo[1,5-a]pyridin-3-yl)carbamate] | 179 nM | 177 nM |  | > 10 µM |
| O=C(Nc1ccccc1)c1cnn2ccc(N3C[C@@H](F)C[C@@H]3c3cccc(F)c3)cc12 [Example X-22, 5-[(2R,4S)-4-fluoro-2-(3-fluorophenyl)pyrrolidin-1-yl]-N-phenylpyrazolo[1,5-a]pyridine-3-carboxamide] | 17 nM | 11 nM |  | > 10 µM |
| NC(=O)Nc1cnn2ccc(N3C[C@@H](F)C[C@@H]3c3cccc(F)c3)cc12 [Example X-23, 1-(5-((2R,4S)-4-fluoro-2-(3-fluorophenyl)pyrrolidin-1-yl)pyrazolo[1,5-a]pyridin-3-yl)urea] | 176 nM | 154 nM |  | > 10 µM |

Second part, led by results:

| IC50 [2] | IC50 [3] | melting point | Structure (SMILES) | IC50 [1] |
| --- | --- | --- | --- | --- |
| 119 nM | 395 nM |  | NC(=O)c1cnn2ccc(N3C[C@H](O)C[C@@H]3c3cccc(F)c3)cc12 [Example X-24, 5-[(2R,4R)-2-(3-fluorophenyl)-4-hydroxypyrrolidin-1-yl]pyrazolo[1,5-a]pyridine-3-carboxamide] | > 10 µM |
| 58 nM | 125 nM |  | N#C[C@H]1C[C@H](c2cccc(F)c2)N(c2ccn3ncc(C(N)=O)c3c2)C1 [Example X-25, 5-((2R,4S)-4-cyano-2-(3-fluorophenyl)pyrrolidin-1-yl)pyrazolo[1,5-a]pyridine-3-carboxamide] | > 10 µM |
| 232 nM | 443 nM |  | NC(=O)c1cnn2ccc(N3C[C@@H](C(N)=O)C[C@@H]3c3cccc(F)c3)cc12 [Example X-26, 5-((2R,4S)-4-carbamoyl-2-(3-fluorophenyl)pyrrolidin-1-yl)pyrazolo[1,5-a]pyridine-3-carboxamide] | > 10 µM |
| > 10000 nM | > 10000 nM |  | N#Cc1cc(F)cc([C@@H]2C[C@H](F)CN2c2ccn3ncc(C(N)=O)c3c2)c1 [Example X-27] | > 10 µM |
| 1090 nM | 2140 nM |  | Cc1ccc(C)c(C2CCCN2c2ccn3ncc(C(N)=O)c3c2)c1 (stereo not shown) [Example X-28] | > 10 µM |
| > 10000 nM | > 10000 nM |  | CN1CCN(c2ccn3ncc(C(N)=O)c3c2)C(c2ccccc2)C1 (stereo not shown) [Example X-29] | > 10 µM |
